Consider three molecules from patent publication US10995068B2, “Synthetic sphingolipid-like molecules, drugs, methods of their synthesis and methods of treatment” (The Regents of the University of California, priority 2015, dated 2021).

Structures are written as SMILES. “And” between values parts separate entries of the source, which are not always exact repeats. Identical values can stand only once. Like-named read-outs stand apart in the source and are kept apart here.

Experiment [1] has as its system PC3 prostate cancer cells. The experiment can be described thus: Cell viability by vital dye exclusion and flow cytometry in PC3. Type of experiment: cell-based, human. The note with it: vital dye exclusion (DAPI) and flow cytometry, 72 h. On the procedure:
Thus, to determine whether analogues in accordance with embodiments of the invention are cytotoxic, studies were conducted using vital dye exclusion and flow cytometry (Table 2).
(§1) Viability assays: Cell Titer Glo assays (Cell Titer Glo Luminescent Cell Viability Assay kit, cat #G7571, Promega Corporation) are performed in clear bottom 96-well black cell culture plates (cat #655090, Greiner Bio-One, NC, USA). After plating at 1,000 cells/well in volume of 100 μl, cells are left undisturbed for at least 24 h before drug addition. After 72 h, cells are prepared for analysis by adding 10 μl of 0.1% Triton-X100 in PBS with shaking for 1 min at room temperature (RT). Cell Titer-Glo cell lysis reagent (20 μl) is then added followed by 1 min of shaking and a 10 min incubation in the dark at RT. Luminescence is detected using an IVIS imaging system (IVIS Lumina II, Perkin Elmer, USA). […] IC50s are determined using GraphPad Prism (GraphPad Software, Inc, La Jolla, Calif.). SupB-15 viability was determined by flow cytometry. Cell Titer Glo assays were performed with the other cell lines.
(In general: A flow cytometer gives signals particle by particle.)

Experiment [2] relates to DU145 prostate cancer cells. The experiment can be described thus: Cell Titer Glo proliferation assay in DU145. The note with it: Mean ± SEM, n ≥ 3, read-out: IC50 values in prostate cancer cell lines, DU145. Type of experiment: cell-based, human. In a few lines:
(§2)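 Cells plated at 1,000 cells/well and left at least 24 h, then exposed to compound for 72 h. Permeabilised with 0.1% Triton-X100, lysed with Cell Titer-Glo reagent, luminescence read; IC50 from dose-response curves. PC3 grown in F12K with 10% FCS, DU145 in MEM with 10% FCS and pyruvate.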
Background: ATP-based viability assays read luminescence as a measure of living cells.

Experiment [3] concerns Breast (MDA-MB-231) cancer cell line. The experiment can be described thus: IC50 in cancer cell lines (Table 3), breast. The note with it: Mean ± SEM, n ≥ 3. It counts as cell-based, human. On the procedure:
(§3) Having observed a suitable potency of some embodiments of the invention, including, at least with compounds 3-6, 14 in prostate cancer cell lines, other cancer cell lines were tested with these compounds. […] Compounds that were active in prostate cancer cell lines also killed BCR-Abl-positive leukemia cells with similar potency to FTY720.
(§4) Cell culture studies: Sup-B15 cells are maintained at 2-3 million/mL in RPMI 1640 (Mediatech) supplemented with 10% fetal calf serum (FCS, Sigma-Aldrich), 10 mM Hepes (Mediatech), 55 μM β-mercaptoethanol (Sigma-Aldrich), 2 mM L-glutamine (Mediatech), and antibiotics. All adherent cells are maintained at 70-80% confluence. Cell are cultured in the following media: PC3 & A549, Ham's F12K (Corning Cell Gro) supplemented with 10% FCS and antibiotics; DU145 cells, MEM (Corning Cell Gro) supplemented with 10% FCS, 1 mM sodium pyruvate (Mediatech), and antibiotics; SW620 & MDA-MB-231, DMEM (Corning Cell Gro) with 10% FCS, 1 mM sodium pyruvate (Mediatech), and antibiotics; Panc-1 cells, DMEM (Corning Cell Gro) supplemented with 10% FCS and antibiotics. All of the above cell lines are available from the ATCC.
as §1

The subject of experiment [4] is PC3 prostate cancer cells. The experiment can be described thus: Cell Titer Glo proliferation assay in PC3. The note with it: for IC50: Cell Titer Glo, 72 h, Mean ± SEM, n ≥ 3, read-out: IC50 values in prostate cancer cell lines, PC3; for activity in the prostate cancer cell proliferation assay (in words): PC3 and DU145, Cell Titer Glo. Type of experiment: cell-based, human. The method in brief:
as §2

For another experiment, the system named is FL5.12 cells. The experiment can be described thus: Vacuolation assay. The arrangement: key to Vacuolation score: 0-100 score: (3×%cat3+2×%cat2+1×%cat1)/3; cells graded 0-3 for vacuoles. It counts as cell-based, murine. The note with it: FL5.12 cells, 3 h in 2.5 μM compound except where otherwise indicated, mean ± SEM, n ≥3. The method in brief:
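Cells incubated 3 h with 2.5 μM compound unless noted, then examined by brightfield/DIC microscopy at 100×. At least 15 cells per experiment graded 0–3; weighted % score divided by 3 (maximum 100), averaged over three independent experiments as mean±SEM.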

Experiment [5] deals with Colon (SW-620) cancer cell line. In words: IC50 in cancer cell lines (Table 3), colon. The settings on record: Mean ± SEM, n ≥ 3. Type of experiment: cell-based, human. On the procedure:
as §3, §4, §1

A further experiment relates to Leukemia (SupB-15) cells. In words: IC50 in cancer cell lines (Table 3), leukemia. It counts as cell-based, human. The note with it: flow cytometry, Mean ± SEM, n ≥ 3. How it is done:
as §3, §4, §1

Experiment [6] has as its system Pancreas (PANC-1) cancer cell line. The experiment can be described thus: IC50 in cancer cell lines (Table 3), pancreas. It counts as cell-based, human. The settings on record: Mean ± SEM, n ≥ 3. On the procedure:
as §3, §4, §1

Experiment [7] has as its system Lung (A-549) cancer cell line. The experiment can be described thus: IC50 in cancer cell lines (Table 3), lung. Type of experiment: cell-based, human. The settings on record: Mean ± SEM, n ≥ 3. On the procedure:
as §3, §4, §1

The IC50 is the concentration that gives 50% inhibition. Turning to `CCCCCCCCc1ccc([C@H]2CCN[C@@H]2CO)cc1.Cl` [Compound 5, (2S,3R)-2-(hydroxymethyl)-3-(4-octylphenyl)Pyrrolidinium chloride], the IC50 in experiment [1] (Homo sapiens) was found to be 5.5 ± 0.4 µM; in experiment [2] (Homo sapiens, DU-145, 72 h), 3.8 ± 0.4 µM; in [3] (Homo sapiens, MDA-MB-231), 2.1 ± 0.2 µM; in experiment [4] (Homo sapiens), 4000 ± 700 nM; in experiment [5] (Homo sapiens, SW-620), 2500 ± 100 nM; with Leukemia (SupB-15) cells (Homo sapiens, SUP-B15), 5.1 ± 0.9 µM. The IC50 in [6] (Homo sapiens, PANC-1) was 3.3 ± 0.5 µM; in [7] (Homo sapiens, A549), 8.9 ± 1.4 µM. The “activity in the prostate cancer cell proliferation assay (in words)” value in experiment [4] is recorded as “as active as FTY720”. Moreover, the Vacuolation score in the experiment with FL5.12 cells (listed as 104) is 81 and 81 ± 3.
For `CCCCCCCCc1ccc([C@@H]2CCN[C@H]2CO)cc1.Cl` [Compound 6], the IC50 is 5.4 ± 0.6 µM in [1]; 3.7 ± 0.4 µM in experiment [2] (72 h); 4.9 ± 0.6 µM in experiment [3]; 3000 ± 400 nM in experiment [4]; 2100 ± 200 nM in [5]; 5.9 ± 0.1 µM with Leukemia (SupB-15) cells. Moreover, the IC50 in [6] amounted to 5 ± 0.9 µM; in [7], 8.4 ± 1.2 µM. Moreover, the “activity in the prostate cancer cell proliferation assay (in words)” value in experiment [4] is on record as “as active as FTY720”.
As to `CCCCCCCCc1ccc(CCC(N)(CO)CO)cc1.Cl` [FTY720, 2-Amino-2-[2-(4-octylphenyl)ethyl]propane 1,3-diol hydrochloride, reference compound], the half-inhibitory concentration (IC50) in experiment [1] (Homo sapiens) is 4.8 ± 0.1 µM; in experiment [2] (Homo sapiens, DU-145, 72 h), 3.1 ± 0.2 µM; in experiment [3] (Homo sapiens, MDA-MB-231) it was 4 ± 0.1 µM; in experiment [4] (Homo sapiens) it was 2600 ± 200 nM; in [5] (Homo sapiens, SW-620) it was 2800 ± 100 nM; in the experiment on Leukemia (SupB-15) cells (Homo sapiens, SUP-B15) it was 6.8 ± 0.7 µM. In addition, the IC50 in [6] (Homo sapiens, PANC-1) was found to be 4.6 ± 0.5 µM; in experiment [7] (Homo sapiens, A549) it was 6 ± 0.4 µM. In the experiment with FL5.12 cells, the Vacuolation score worked out at 82 ± 4.
